Read-outs that look alike come from different tables or passages of the source.
Assays:
H1047R PIK3CA enzyme = H1047R PIK3CA enzyme (Homo sapiens, UniProt P42336, H1047R); assay: ADP-Glo Biochemical PIK3CA Kinase Assay
cells = settings: Homo sapiens, MCF-10A, read-out: MCF10A I50
[1] = ADP-Glo biochemical PIK3CA kinase assay

H1047R PIK3CA enzyme, sequence (P42336 whole entry H1047R): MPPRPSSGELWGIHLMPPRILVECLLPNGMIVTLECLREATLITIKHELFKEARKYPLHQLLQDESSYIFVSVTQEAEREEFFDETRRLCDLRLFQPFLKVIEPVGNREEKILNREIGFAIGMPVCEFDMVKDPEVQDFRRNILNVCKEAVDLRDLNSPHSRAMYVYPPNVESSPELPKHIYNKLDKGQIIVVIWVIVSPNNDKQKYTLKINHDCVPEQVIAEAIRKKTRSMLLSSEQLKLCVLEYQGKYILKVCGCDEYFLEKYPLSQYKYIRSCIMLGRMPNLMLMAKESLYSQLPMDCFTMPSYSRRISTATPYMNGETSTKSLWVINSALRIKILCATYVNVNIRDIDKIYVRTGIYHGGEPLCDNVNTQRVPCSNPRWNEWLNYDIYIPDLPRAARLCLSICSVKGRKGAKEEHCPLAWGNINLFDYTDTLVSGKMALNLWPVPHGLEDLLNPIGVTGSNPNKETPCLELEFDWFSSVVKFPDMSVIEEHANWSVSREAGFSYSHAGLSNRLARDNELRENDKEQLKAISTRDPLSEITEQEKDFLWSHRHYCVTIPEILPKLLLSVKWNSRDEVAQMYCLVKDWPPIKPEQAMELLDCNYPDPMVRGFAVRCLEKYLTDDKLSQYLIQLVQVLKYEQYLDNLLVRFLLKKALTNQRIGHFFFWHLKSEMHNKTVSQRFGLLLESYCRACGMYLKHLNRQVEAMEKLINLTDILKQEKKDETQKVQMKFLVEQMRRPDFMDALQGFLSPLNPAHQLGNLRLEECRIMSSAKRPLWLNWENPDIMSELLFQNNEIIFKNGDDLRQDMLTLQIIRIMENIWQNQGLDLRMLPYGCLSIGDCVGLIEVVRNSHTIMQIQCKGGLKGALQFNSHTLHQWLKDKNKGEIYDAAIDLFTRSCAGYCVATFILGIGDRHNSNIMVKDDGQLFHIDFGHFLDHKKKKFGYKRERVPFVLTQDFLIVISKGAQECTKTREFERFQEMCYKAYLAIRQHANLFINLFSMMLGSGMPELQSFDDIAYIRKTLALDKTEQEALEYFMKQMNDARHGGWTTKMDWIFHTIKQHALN
H1047R PIK3CA enzyme, sequence (P27986 whole entry partner): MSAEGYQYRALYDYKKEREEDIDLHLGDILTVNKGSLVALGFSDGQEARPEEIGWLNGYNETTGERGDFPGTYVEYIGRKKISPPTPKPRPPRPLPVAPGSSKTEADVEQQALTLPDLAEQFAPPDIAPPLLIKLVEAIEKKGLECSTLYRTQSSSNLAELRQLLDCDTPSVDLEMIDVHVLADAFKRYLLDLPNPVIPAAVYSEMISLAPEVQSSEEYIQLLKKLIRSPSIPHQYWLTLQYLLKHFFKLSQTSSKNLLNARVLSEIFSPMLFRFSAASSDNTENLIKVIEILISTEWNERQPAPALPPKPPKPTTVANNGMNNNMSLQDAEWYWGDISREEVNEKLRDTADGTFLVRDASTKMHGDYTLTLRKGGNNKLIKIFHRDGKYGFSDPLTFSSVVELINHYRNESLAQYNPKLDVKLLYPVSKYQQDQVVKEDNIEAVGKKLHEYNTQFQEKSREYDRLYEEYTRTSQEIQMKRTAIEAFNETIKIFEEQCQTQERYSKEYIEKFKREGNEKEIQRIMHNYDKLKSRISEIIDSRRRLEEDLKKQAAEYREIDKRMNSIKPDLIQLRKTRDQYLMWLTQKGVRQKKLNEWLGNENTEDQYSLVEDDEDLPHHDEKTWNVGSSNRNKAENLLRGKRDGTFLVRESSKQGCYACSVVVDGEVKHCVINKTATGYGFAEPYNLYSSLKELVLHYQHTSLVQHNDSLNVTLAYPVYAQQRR

SMILES | IC50 (H1047R PIK3CA enzyme) | IC50 (cells) | IC50 (H1047R PIK3CA enzyme; [1])
Cc1ccccc1Nc1cc(=O)n(CC(=O)O)cc1NC(=O)c1csc2ccccc12 [I-310] | 10000 to 100000 nM | 36000 to 100000 nM | 
Cc1ccccc1Nc1ncc(C(=O)N[C@@H]2CC(=O)N(C)C2)cc1NC(=O)c1csc2ccccc12 (single isomer, unassigned) [I-435] |  | 5000 to 10000 nM | ≤ 100 nM
Cc1ccccc1Nc1ncncc1NC(=O)c1csc2ccccc12 [I-413] |  | 10000 to 36000 nM | 1000 to 10000 nM
CNC(=O)c1cnc(Nc2ccccc2Cl)c(NC(=O)c2cc(F)cc(C(F)(F)F)c2)c1 [I-293] | 100 to 500 nM | 1000 to 5000 nM | 
CNC(=O)c1cnc(Nc2ccccc2C)c(NC(=O)c2cc3c(Br)cccn3c2)c1 [I-486] |  | 10000 to 36000 nM | 100 to 500 nM
Cc1ccccc1Nc1ncc(C(=O)N[C@H]2C[C@H](C(=O)O)C2)cc1NC(=O)c1csc2ccccc12 [I-685] |  | 10000 to 36000 nM | 500 to 1000 nM
Cc1ccccc1Nc1ncc(C(=O)NCc2ccon2)cc1NC(=O)c1csc2ccccc12 [I-560] |  | 1000 to 5000 nM | ≤ 100 nM
Cc1ccccc1Nc1ncc(C(=O)NC2C[S+]([O-])C2)cc1NC(=O)c1nsc2ccccc12 (stereo not drawn) [I-331] | 100 to 500 nM | 1000 to 5000 nM | 
CNC(=O)c1cnc(Nc2ccccc2C)c(NC(=O)Cc2cnc3ccccn23)c1 [I-652] |  | 10000 to 36000 nM | 100 to 500 nM
Cc1ccccc1Nc1ncc(C(=O)N2CC(C)C2)cc1NC(=O)c1csc2ccccc12 [I-607] |  | 5000 to 10000 nM | 100 to 500 nM
Cc1ccccc1Nc1ncc(C(=O)NCc2cccnc2)cc1NC(=O)c1cc(F)cc(C(F)(F)F)c1 [I-700] |  | 10000 to 36000 nM | 100 to 500 nM
Cc1ccccc1Nc1ncc(C(=O)NCc2nccs2)cc1NC(=O)c1csc2ccccc12 [I-138] | ≤ 100 nM | 5000 to 10000 nM | 
CNC(=O)c1cnc(Nc2cccc(C)c2Cl)c(NC(=O)c2cc(F)cc(C(F)(F)F)c2)c1 [I-294] | 1000 to 10000 nM | 36000 to 100000 nM | 
Cc1ccccc1Nc1ncc(C(=O)N[C@H]2COC[C@@H]2O)cc1NC(=O)c1csc2ccccc12 [I-618] |  | 1000 to 5000 nM | 100 to 500 nM
CNC(=O)c1cnc(Nc2ccccc2C)c(NC(=O)c2cc(C#N)cc(C(F)(F)F)c2)c1 [I-527] |  | 5000 to 10000 nM | 100 to 500 nM
Cc1ccccc1Nc1ncc(-c2cncc(C#N)c2)cc1NC(=O)c1cc(F)cc(C(F)(F)F)c1 [I-75] | 100 to 500 nM | 1000 to 5000 nM | 
Cc1ccccc1Nc1ncc(C(=O)NC2COC2)cc1NC(=O)c1csc2ccccc12 [I-192] | 100 to 500 nM | 36000 to 100000 nM | 
Cc1ccccc1Nc1ncc(C(=O)Nc2ccncc2)cc1NC(=O)c1cc(F)cc(C(F)(F)F)c1 [I-234] | 100 to 500 nM | < 1000 nM | 
CCn1ccc(C)c(CNC(=O)c2cnc(Nc3ccccc3C)c(NC(=O)c3csc4ccccc34)c2)c1=O [I-611] |  | 5000 to 10000 nM | 100 to 500 nM
Cc1ccccc1Nc1ncc(C(=O)NC(C)c2cn[nH]c2)cc1NC(=O)c1csc2ccccc12 (stereo not drawn) [I-605] |  | 1000 to 5000 nM | ≤ 100 nM
Cc1ccccc1Nc1ncc(C(=O)NC2CC(O)C2)cc1NC(=O)c1cc(F)cc(C(F)(F)F)c1 (stereo not drawn) [I-274] | 100 to 500 nM | 1000 to 5000 nM | 
O=C(NC1CS(=O)(=O)C1)c1cnc(N2CCOc3ccccc32)c(NC(=O)c2csc3ccccc23)c1 [I-245] | 100 to 500 nM | 5000 to 10000 nM | 

SMILES | IC50 (H1047R PIK3CA enzyme) | IC50 (cells) | IC50 (H1047R PIK3CA enzyme; [1])
CNC(=O)c1cnc(Nc2ccccc2C)c(NC(=O)c2n[nH]c3ccc(Br)cc23)c1 [I-520] |  | 10000 to 36000 nM | ≤ 100 nM
Cc1ccccc1Nc1ncc(N2CC(S(C)(=O)=O)C2)cc1NC(=O)c1csc2ccccc12 [I-436] |  | 10000 to 36000 nM | 500 to 1000 nM
Cc1ccccc1Nc1ncc(C(=O)NCC2CCC(O)C2)cc1NC(=O)c1csc2ccccc12 (stereo not drawn) [I-588] |  | 10000 to 36000 nM | 100 to 500 nM
Cc1ccccc1Nc1ncc(-c2cncnc2)cc1NC(=O)c1cc(F)cc(C(F)(F)F)c1 [I-7] | 100 to 500 nM | 5000 to 10000 nM | 
CC(NC(=O)c1cnc(N)c(NC(=O)c2csc3ccccc23)c1)c1nnc2ccccn12 (stereo not drawn) [I-691] |  | 5000 to 10000 nM | 100 to 500 nM
CNC(=O)c1cnc(Nc2ccc(C)cc2)c(NC(=O)c2cc(F)cc(C(F)(F)F)c2)c1 [I-36] | 500 to 1000 nM | 10000 to 36000 nM | 
C[C@@H](NC(=O)c1cnc(N2CCOc3ccccc32)c(NC(=O)c2csc3ccccc23)c1)c1ccncc1 (stereo in doubt) [I-314] | 100 to 500 nM | 5000 to 10000 nM | 
Cc1ccccc1Nc1ncc(C(=O)NCc2ccn(C)n2)cc1NC(=O)c1cc(F)cc(C(F)(F)F)c1 [I-178] | 100 to 500 nM | 1000 to 5000 nM | 
Cc1ccccc1Nc1ncc(C(=O)NC2CC3(COC3)C2)cc1NC(=O)c1cc(F)cc(C(F)(F)F)c1 [I-267] | 100 to 500 nM | < 1000 nM | 
Cc1ccccc1Nc1ncc(C(=O)NC2CS(=O)(=O)C2)cc1NC(=O)c1nsc2ccccc12 [I-330] | 100 to 500 nM | 1000 to 5000 nM | 
CNC(=O)c1ccc(Nc2cc(F)ccc2Cl)c(NC(=O)c2cc(F)cc(C(F)(F)F)c2)n1 [I-802] | 100 to 500 nM | 1000 to 5000 nM | 
CNC(=O)c1cnc(Nc2ccccc2C)c(NC(=O)c2csc3ccc(OC)cc23)c1 [I-409] |  | 10000 to 36000 nM | 1000 to 10000 nM
Cc1ccccc1Nc1ncc(C(=O)NCc2nccc3ccccc23)cc1NC(=O)c1csc2ccccc12 [I-593] |  | 10000 to 36000 nM | 100 to 500 nM
C[C@]1(O)C[C@@H](NC(=O)c2cnc(N3CCOc4ccccc43)c(NC(=O)c3csc4ccccc34)c2)C1 [I-317] | 100 to 500 nM | 5000 to 10000 nM | 
Cc1ccccc1Nc1ncc(C(=O)N2CC(O)C2)cc1NC(=O)c1csc2ccccc12 [I-613] |  | 10000 to 36000 nM | 100 to 500 nM
Cc1ccccc1Nc1cnc(C(=O)NC2CS(=O)(=O)C2)cc1NC(=O)c1cc(F)cc(C(F)(F)F)c1 [I-343] | 1000 to 10000 nM | < 1000 nM | 
Cc1ccccc1Nc1ncc(C(=O)NC2CCC(F)(F)C2)cc1NC(=O)c1csc2ccccc12 (stereo not drawn) [I-544] |  | 10000 to 36000 nM | 100 to 500 nM
Cc1ccccc1Nc1ncc(C(=O)N[C@H]2CCC(F)(F)C[C@@H]2O)cc1NC(=O)c1csc2ccccc12 [I-571] |  | 1000 to 5000 nM | 100 to 500 nM
C[C@H](NC(=O)c1cnc(N2CCOc3ccccc32)c(NC(=O)c2csc3ccccc23)c1)c1cccnc1 (stereo in doubt) [I-258] | 100 to 500 nM | 10000 to 36000 nM | 
Cc1ccccc1Nc1ncc(C(=O)Nc2cccnn2)cc1NC(=O)c1csc2ccccc12 [I-496] |  | 10000 to 36000 nM | 500 to 1000 nM
Cc1ccccc1Nc1ncc(C(=O)NC2CC(F)(F)C2)cc1NC(=O)c1nsc2ccccc12 [I-332] | 100 to 500 nM | 5000 to 10000 nM | 
CNC(=O)c1cnc(Nc2ccccc2C)c(NC(=O)c2cc(Cl)cc(Cl)c2)c1 [I-6] | 500 to 1000 nM | 5000 to 10000 nM | 

SMILES | IC50 (H1047R PIK3CA enzyme) | IC50 (cells) | IC50 (H1047R PIK3CA enzyme; [1])
O=C1C[C@@H](CNC(=O)c2cc(F)cc(C(F)(F)F)c2)[C@H](c2cc(F)ccc2Cl)N1 (racemic) [I-801, N-{[(2R,3S)-2-(2-chloro-5-fluorophenyl)-5-oxopyrrolidin-3-yl]methyl}-3-fluoro-5-(trifluoromethyl)benzamide] | 100 to 500 nM | 1000 to 5000 nM | 
Cc1ccccc1Nc1ncc(C(=O)N[C@H]2CCN(C)C2)cc1NC(=O)c1cc(F)cc(C(F)(F)F)c1 (stereo in doubt) [I-67] | 500 to 1000 nM | 10000 to 36000 nM | 
CNC(=O)c1cnc(Nc2nc(C)c(C)s2)c(NC(=O)c2cc(F)cc(C(F)(F)F)c2)c1 [I-301] | 500 to 1000 nM | 10000 to 36000 nM | 
CNC(=O)c1cnc(Nc2cccc3ccn(C)c23)c(NC(=O)c2csc3ccccc23)c1 [I-680] |  | 10000 to 36000 nM | 1000 to 10000 nM
CNC(=O)c1cnc(Nc2cccc(Cl)c2)c(NC(=O)c2cc(F)cc(C(F)(F)F)c2)c1 [I-287] | 1000 to 10000 nM | 36000 to 100000 nM | 
Cc1cc(Cn2cc(NC(=O)c3csc4ccccc34)c(Nc3ccccc3C)cc2=O)no1 [I-390] | 100 to 500 nM | 10000 to 36000 nM | 
CNC(=O)c1cnc(Nc2ccccc2C)c(NS(=O)(=O)c2ccc(F)cc2C)c1 [I-8] | 100 to 500 nM | 1000 to 5000 nM | 
Cc1ccccc1Nc1ncc(C(=O)NCc2ccncn2)cc1NC(=O)c1csc2ccccc12 [I-572] |  | < 1000 nM | 100 to 500 nM
Cc1ccccc1Nc1ncc(C(=O)NCc2ccc(Cl)cc2)cc1NC(=O)c1csc2ccccc12 [I-191] | 100 to 500 nM | 1000 to 5000 nM | 
CNC(=O)c1cnc(Nc2ccccc2F)c(NC(=O)c2cc(F)cc(C(F)(F)F)c2)c1 [I-300] | 1000 to 10000 nM | 36000 to 100000 nM | 
Cc1ccccc1Nc1ncc(C(=O)NCCn2ccnn2)cc1NC(=O)c1csc2ccccc12 [I-570] |  | 10000 to 36000 nM | 100 to 500 nM
CC(C)(O)c1cnc(Nc2cc(F)ccc2Cl)c(NC(=O)c2nsc3ccccc23)c1 [I-783] |  | 5000 to 10000 nM | 100 to 500 nM
Cc1ccccc1Nc1ncc(C(=O)NCc2ccnn2C)cc1NC(=O)c1cc(F)cc(C(F)(F)F)c1 [I-52] | 100 to 500 nM | 1000 to 5000 nM | 
Cc1ccccc1Nc1ncc(C(=O)Nc2cccnc2)cc1NC(=O)c1cc(F)cc(C(F)(F)F)c1 [I-239] | 100 to 500 nM | 1000 to 5000 nM | 
COC[C@@H](C)NC(=O)c1cnc(Nc2ccccc2C)c(NC(=O)c2csc3ccccc23)c1 [I-526] |  | 10000 to 36000 nM | 1000 to 10000 nM
CC(=O)N1CC(NC(=O)c2cnc(N3CCOc4ccccc43)c(NC(=O)c3cc(F)cc(C(F)(F)F)c3)c2)C1 [I-329] | 500 to 1000 nM | 10000 to 36000 nM | 
O=C(NCCN1CCOCC1)c1cnc(N2CCOc3ccccc32)c(NC(=O)c2csc3ccccc23)c1 [I-316] | 1000 to 10000 nM | 36000 to 100000 nM | 
CNC(=O)c1cnc(Nc2nc(C)cs2)c(NC(=O)c2cc(F)cc(C(F)(F)F)c2)c1 [I-304] | 1000 to 10000 nM | 36000 to 100000 nM | 
CNC(=O)c1cnc(Nc2ccccc2C)c(NC(=O)c2coc3ccc(Cl)cc23)c1 [I-408] |  | 1000 to 5000 nM | 500 to 1000 nM
CNC(=O)c1cnc(Nc2cn(C)nc2C)c(NC(=O)c2cc(F)cc(C(F)(F)F)c2)c1 [I-289] | 10000 to 100000 nM | 36000 to 100000 nM | 
Cc1ccccc1Nc1ncc(C(=O)NCC2(O)CCOC2)cc1NC(=O)c1csc2ccccc12 (stereo not drawn) [I-583] |  | 10000 to 36000 nM | 500 to 1000 nM
Cc1ccccc1Nc1ncc(C(=O)N[C@@H]2CCO[C@@H]2C)cc1NC(=O)c1csc2ccccc12 [I-594] |  | 5000 to 10000 nM | 100 to 500 nM

— patent publication US20250090540A1, “PI3K-ALPHA INHIBITORS AND METHODS OF USE THEREOF” (Relay Therapeutics, Inc., priority 2021, published 2025)
